Reference: patent US20250003877A1, “Silyl Bridged Dyes” (priority 2021, published 2025)
Where two headings read alike, the source gives them in different places.

Legend:
[1] = for ϕ (quantum yield): pH 7.4; for Brightness (ϕ × ε): ϕ in PBS × ε in EtOH/0.1% TFA
[2] = KL-Z lactone-zwitterion equilibrium; assay type: physicochemical; conditions: 1:1 v/v dioxane:water
[3] = system: HaloTag®-GFP-expressing HeLa cells; assay: No-wash live cell imaging of HaloTag-expressing cells with a Si-bridge dye; assay type: cell-based; conditions: 200 nM dye, 15 min, 37° C., HeLa transfected with pHaloTag®-EGFP
Experimental: HeLa cells were seeded in 35 mm glass bottom dishes (Cellvis, catalog no. D35-28-O—N), and transfected with pHaloTag®-EGFP (Addgene #86629). Transient transfections were performed using Lipofectamine 2000 (Invitrogen, catalog no. 1168019) following the manufacturer's instructions. HeLa cell labeling and confocal imaging were performed 24 hr after transfection.
Labeling with JF646-HaloTag® ligand (Promega) and new dyes containing HaloTag® ligands were performed following the manufacturer's instructions. Briefly, cells were incubated with 200 nM dye in DMEM for 15 min at 37° C. Subsequently, images were obtained on a Leica SP-8 Confocal Microscope (SCOPE core facility, UMass Medical School), using a 40×1.15 Oil DIC objective. EGFP was excited with the Argon (488 nm) laser at a 15% intensity and detected through a 505-530 band pass filter and a pinhole set to 53.12 μm. Dyes fluorescing in the Cy5 channel were excited with the HeNe (633 nm) laser at a 15% intensity and detected through a 640-615 band pass filter and […] pinhole. Image analysis was performed using Leica LAS X SP8 software and ImageJ software.

[4] = system: hairpin DNA oligonucleotide (hpDNA); assay: Photophysical properties after 2 h treatment with hairpin DNA (hpDNA); assay type: physicochemical; conditions: for Brightness (ε × ϕ) / ε (M^−1 cm^−1) / λem (nm) / λex (nm) / ϕ: +30 μM hpDNA, 2 h; for brightness: in the presence of 30 μM hpDNA
Experimental: Absorption and fluorescence spectra were measured on a Horiba Duetta fluorescence and absorbance spectrometer in quartz cuvettes (Starna Cells, catalog #3-Q-10). Extinction coefficients were calculated from plots of absorption versus concentration. Quantum yields were measured on a Hamamatsu Quantaurus QY C-11347-11 absolute quantum yield integrating sphere spectrometer at absorption values of <0.1 in side-arm quartz cuvettes (Hamamatsu cat #A10095-02). All measurements were performed in PBS (9.0 g/l NaCl, 0.795 g/l Na2HPO4, 0.144 g/l KH2PO4, pH 7.4, Corning cat #21-040-CV), ethanol, or 0.1% TFA/ethanol and prepared from stock solutions of dyes in DMSO, with final DMSO <1%. […] Selected KLZ values were determined in 1:1 v/v dioxane:water as previously described.
Spirolactonizable Si-rhodamines are particularly valuable for live cell imaging. They typically exist in a nonfluorescent, neutral cell-permeable form that can convert to a highly fluorescent form when bound to particular targets, such as DNA or the protein HaloTag®. This fluorogenic response occurs when the nonfluorescent spirolactone ring opens, generating a zwitterionic dye (Scheme 12). To date, all examples of fluorogenic Si-rhodamine dyes have been modified with targeting groups directly on the pendant phenyl ring that forms the spirolactone. It is not obvious whether this same fluorogenic behavior would also occur with dyes that are modified with targeting groups on the more distal silyl group. SiR-DNA (Spirochrome) is a commercially-available Si-rhodamine dye with the DNA-targeting ligand Hoechst 33258 attached to the pendant phenyl ring (Schemes 13A-C), allowing specific labeling of the nucleus in live cells. Therefore, two Hoechst 33258-modified Si-Bridge isomers were synthesized via direct reaction of the phenol of Hoechst 33258 with the isomeric Si-iodopropyl dyes compounds 047 and 048 (Scheme 6), and then assessed their ability to label the nucleus in live HeLa cells compared to SiR-DNA (FIGS. 2A-2C). […] To gain more insight into the molecular basis for this difference, the photophysical properties of compounds 061 and 062 were evaluated in vitro in the presence and absence of a hairpin DNA oligonucleotide (hpDNA) (Table 4). Like SiR-DNA, these dyes are quenched and virtually nonfluorescent in PBS, with quantum yields <0.02 and brightness of <130 M^−1 cm^−1.

[5] = system: nucleus in live HeLa cells; assay: No-wash live cell imaging of the nucleus with a Si-bridge dye; assay type: cell-based; conditions: confocal, Cy5 channel
Experimental: HeLa cells were cultured in Dulbecco's modified Eagle medium (DMEM, from GIBCO, catalog no. 11995065) supplemented with 10% fetal bovine serum (FBS) (GIBCO, catalog no. 10437028) and 1% penicillin-streptomycin (Sigma) at 37° C. in a 5% CO2 incubator. For imaging, cells were seeded in 35 mm glass bottom dishes (Cellvis, catalog no. D35-28-O—N). […] Dyes fluorescing in the Cy5 channel were excited with the HeNe (633 nm) laser at a 15% intensity and detected through a 640-615 band pass filter, and EGFP was excited with the Argon (488 nm) laser. Image analysis was performed using Leica LAS X SP8 software and ImageJ software.

[6] = spirolactone dyes, table title says PBS, text (b560-b564) says maximal ε when ring-opened in EtOH/0.1% TFA

C[Si]1(C)c2cc(N3CCC3)ccc2C2(OC(=O)c3ccccc32)c2ccc(N3CCC3)cc21 [Compound 031, 3,7-Di(azetidin-1-yl)-5,5-dimethyl-3′H,5H-spiro[dibenzo[b,e]siline-10,1′-isobenzofuran]-3′-one, reference compound]
Em (nm) ([1]; PBS): 664 nm
Ex (nm) ([1]; PBS): 646 nm
ϕ (quantum yield) ([1]; PBS): 0.45
ε (M^−1 cm^−1) [1, 6]: 156,000 M^−1 cm^−1
Brightness (ϕ × ε) ([1]; spirolactone dyes): 70,200
KL-Z lactone-zwitterion equilibrium value [2]: 0.0034

CN(C)c1ccc2c(c1)[Si](C)(C)c1cc(N(C)C)ccc1C21OC(=O)c2ccccc21 [Compound 032, 3,7-Bis(dimethylamino)-5,5-dimethyl-3′H,5H-spiro[dibenzo[b,e]siline-10,1′-isobenzofuran]-3′-one, reference compound]
Em (nm) ([1]; PBS): 667 nm
Ex (nm) ([1]; PBS): 648 nm
ϕ (quantum yield) ([1]; PBS): 0.38
ε (M^−1 cm^−1) [1, 6]: 130,000 M^−1 cm^−1
Brightness (ϕ × ε) ([1]; spirolactone dyes): 49,400
KL-Z lactone-zwitterion equilibrium value [2]: 0.002

C=C[Si]1(C=C)c2cc(N3CCC3)ccc2C2(OC(=O)c3ccccc32)c2ccc(N3CCC3)cc21 [Compound 034, 3,7-Di(azetidin-1-yl)-5,5-divinyl-3′H,5H-spiro[dibenzo[b,e]siline-10,1′-isobenzofuran]-3′-one]
extinction coefficient (maximum) in EtOH/0.1% TFA ([1]; EtOH/0.1% TFA): 80,000 M−1 cm−1
Em (nm) ([1]; SDS): 675 nm
Ex (nm) ([1]; SDS): 656 nm
extinction coefficient in anhydrous EtOH/0.1% TFA ([1]; anhydrous EtOH/0.1% TFA): ~144 000 M−1 cm-1
ε (M^−1 cm^−1) [1, 6]: 80,000 M^−1 cm^−1
KL-Z lactone-zwitterion equilibrium value [2]: 0.00125

CN(C)c1ccc2c(c1)[Si@](C)(CCCSCC(=O)NCCOCCOCCCCCCCl)c1cc(N(C)C)ccc1[C@]21OC(=O)c2ccccc21 [Compound 044, 2-((3-((5s,10s)-3,7-Bis(dimethylamino)-5-methyl-3′-oxo-3′H,5H-spiro[dibenzo[b,e]siline-10,1′-isobenzofuran]-5-yl)propyl)thio)-N-(2-(2-((6-chlorohexyl)oxy)ethoxy)ethyl)acetamide]
fluorescence contrast / background / localisation in cells [3]: poorly fluorescent in all cells
labeling of HaloTag®-expressing cells [3]: did not label HaloTag®-expressing cells

CN(C)c1ccc2c(c1)[Si@](C)(CCCSCC(=O)NCCOCCOCCCCCCCl)c1cc(N(C)C)ccc1[C@@]21OC(=O)c2ccccc21 [Compound 045, 2-((3-((5r,10r)-3,7-Bis(dimethylamino)-5-methyl-3′-oxo-3′H,5H-spiro[dibenzo[b,e]siline-10,1′-isobenzofuran]-5-yl)propyl)thio)-N-(2-(2-((6-chlorohexyl)oxy)ethoxy)ethyl)acetamide]
fluorescence contrast / background / localisation in cells [3]: bright high contrast images that correlated strongly to GFP expression

COc1cccc(OC)c1C1=C2C=CC(=[N+](C)C)C=C2[Si@](C)(CCCSCCOCCOCCOCCOCCCCCCCl)c2cc(N(C)C)ccc21 [Compound 049, N-(5-(22-Chloro-7,10,13,16-tetraoxa-4-thiadocosyl)-10-(2,6-dimethoxyphenyl)-7-(dimethylamino)-5-methyldibenzo[b,e]silin-3(5H)-ylidene)-N-methylmethanaminium]
fluorescence contrast / background / localisation in cells [3]: only stained mitochondria
labeling of HaloTag®-expressing cells [3]: did not label HaloTag®-expressing cells

CN(C)c1ccc2c(c1)[Si@](C)(CCCSCCOCCOCCOCCOCCCCCCCl)c1cc(N(C)C)ccc1[C@]21OC(=O)c2ccccc21 [Compound 050, (5s,10s)-5-(22-Chloro-7,10,13,16-tetraoxa-4-thiadocosyl)-3,7-bis(dimethylamino)-5-methyl-3′H,5H-spiro[dibenzo[b,e]siline-10,1′-isobenzofuran]-3′-one]
fluorescence contrast / background / localisation in cells [3]: high background
labeling of HaloTag®-expressing cells [3]: did not label HaloTag®-expressing cells

CN(C)c1ccc2c(c1)[Si@](C)(CCCSCCOCCOCCOCCOCCCCCCCl)c1cc(N(C)C)ccc1[C@@]21OC(=O)c2ccccc21 [Compound 051, (5r,10r)-5-(22-Chloro-7,10,13,16-tetraoxa-4-thiadocosyl)-3,7-bis(dimethylamino)-5-methyl-3′H,5H-spiro[dibenzo[b,e]siline-10,1′-isobenzofuran]-3′-one]
fluorescence contrast / background / localisation in cells [3]: significant background
labeling of HaloTag®-expressing cells [3]: labeled HaloTag®-expressing cells

CN1CCN(c2ccc3[nH]c(-c4ccc5[nH]c(-c6ccc(OCCC[Si@]7(C)c8cc(N(C)C)ccc8[C@]8(OC(=O)c9ccccc98)c8ccc(N(C)C)cc87)cc6)nc5c4)nc3c2)CC1 [Compound 061, (5s,10s)-3,7-Bis(dimethylamino)-5-methyl-5-(3-(4-(5-(4-methylpiperazin-1-yl)-1H,1′H-[2,5′-bibenzo[d]imidazol]-2′-yl)phenoxy)propyl)-3′H,5H-spiro[dibenzo[b,e]siline-10,1′-isobenzofuran]-3′-one]
Brightness (ε × ϕ) [4]: 550
ε (M^−1 cm^−1) [4]: 5,500 M^−1cm^−1
λem (nm) [4]: 672 nm
λex (nm) [4]: 658 nm
ϕ [4]: 0.10
brightness [4]: 550 M⁻¹ cm⁻¹
Brightness (ε × ϕ) ([1]; 0.1% SDS/PBS, 2 h incubation): 10,965
ε (M^−1 cm^−1) ([1]; 0.1% SDS/PBS, 2 h incubation): 25,500 M^−1cm^−1
λem (nm) ([1]; 0.1% SDS/PBS, 2 h incubation): 668 nm
λex (nm) ([1]; 0.1% SDS/PBS, 2 h incubation): 650 nm
ϕ ([1]; 0.1% SDS/PBS, 2 h incubation): 0.43
Brightness (ε × ϕ) ([1]; Hoechst probe in PBS): 130
ε (M^−1 cm^−1) ([1]; Hoechst probe in PBS): 6,500 M^−1cm^−1
λex (nm) ([1]; Hoechst probe in PBS): 660 nm
ϕ ([1]; Hoechst probe in PBS): 0.02
labeling of the nucleus in live HeLa cells [5]: no labeling of the nucleus

CN1CCN(c2ccc3[nH]c(-c4ccc5[nH]c(-c6ccc(OCCC[Si@]7(C)c8cc(N(C)C)ccc8[C@@]8(OC(=O)c9ccccc98)c8ccc(N(C)C)cc87)cc6)nc5c4)nc3c2)CC1 [Compound 062, (5r,10r)-3,7-Bis(dimethylamino)-5-methyl-5-(3-(4-(5-(4-methylpiperazin-1-yl)-1H,1′H-[2,5′-bibenzo[d]imidazol]-2′-yl)phenoxy)propyl)-3′H,5H-spiro[dibenzo[b,e]siline-10,1′-isobenzofuran]-3′-one]
Brightness (ε × ϕ) [4]: 10,400
ε (M^−1 cm^−1) [4]: 26,000 M^−1cm^−1
λem (nm) [4]: 670 nm
λex (nm) [4]: 653 nm
ϕ [4]: 0.40
brightness [4]: 10 400 M^−1 cm^−1
extinction coefficient ([4]; in the presence of 30 mM hpDNA): 26 000 M^−1 cm^−1
quantum yield ([4]; in the presence of 30 mM hpDNA): 0.40
Brightness (ε × ϕ) ([1]; 0.1% SDS/PBS, 2 h incubation): 64,770
ε (M^−1 cm^−1) ([1]; 0.1% SDS/PBS, 2 h incubation): 127,000 M^−1cm^−1
λem (nm) ([1]; 0.1% SDS/PBS, 2 h incubation): 670 nm
λex (nm) ([1]; 0.1% SDS/PBS, 2 h incubation): 649 nm
ϕ ([1]; 0.1% SDS/PBS, 2 h incubation): 0.51
Brightness (ε × ϕ) ([1]; Hoechst probe in PBS): 90
ε (M^−1 cm^−1) ([1]; Hoechst probe in PBS): 10,000 M^−1cm^−1
λex (nm) ([1]; Hoechst probe in PBS): 663 nm
labeling of the nucleus in live HeLa cells [5]: highly fluorogenic, labeling only the nucleus in live cells

C[Si]1(C)c2cc(N3CCC3)ccc2C2(OC(=O)c3ccc(C(=O)NCCOCCOCCCCCCCl)cc32)c2ccc(N3CCC3)cc21 [JF646-HaloTag® ligand]
fluorescence contrast / background / localisation in cells [3]: high contrast images
